Source: patent US10561739B2, “Targeted pyrrolobenzodiazapine conjugates” (priority 2010, dated 2020)

Assays:
Format in all cases: cell-based
[1] = test system: K562 human chronic myeloid leukaemia cells; assay: K562 assay (MTT cytotoxicity); details: drug incubation 1 hour or 96 hours
Method: K562 human chronic myeloid leukaemia cells were maintained in RPM1 1640 medium supplemented with 10% fetal calf serum and 2 mM glutamine at 37° C. in a humidified atmosphere containing 5% CO2 and were incubated with a specified dose of drug for 1 hour or 96 hours at 37° C. in the dark. The incubation was terminated by centrifugation (5 min, 300 g) and the cells were washed once with drug-free medium. Following the appropriate drug treatment, the cells were transferred to 96-well microtiter plates (10^4 cells per well, 8 wells per sample). Plates were then kept in the dark at 37° C. in a humidified atmosphere containing 5% CO2. The assay is based on the ability of viable cells to reduce a yellow soluble tetrazolium salt, 3-(4,5-dimethylthiazol-2-yl)-2,5-diphenyl-2H-tetrazolium bromide (MTT, Aldrich-Sigma), to an insoluble purple formazan precipitate. Following incubation of the plates for 4 days (to allow control cells to increase in number by approximately 10 fold), 20 μL of MTT solution (5 mg/mL in phosphate-buffered saline) was added to each well and the plates further incubated for 5 h. The plates were then centrifuged for 5 min at 300 g and the bulk of the medium pipetted from the cell pellet leaving 10-20 μL per well. […] The optical density was then read at a wavelength of 550 nm on a Titertek Multiscan ELISA plate reader, and a dose-response curve was constructed. […]

786-O cells = assay: Free drug 48 hour Cell Titer Glo cytotoxicity, 786-O; details: Homo sapiens, 786-0, Table 3, 48 hours, read-out: IC50 Summary for Free Drugs, 786-O
Method: (§1) Referring to the following Table 3, the activities of compounds 23, 25, are compared to that of compound 11 on 786-O, Caki-1, MCF-7, HL-60, THP-1, HEL, and TF1 cells. Cells were plated in 150 μL growth media per well into black-sided clear-bottom 96-well plates (Costar, Corning) and allowed to settle for 1 hour in the biological cabinet before placing in the incubator at 37° C., 5% CO2. The following day, 4× concentration of drug stocks were prepared, and then titrated as 10-fold serial dilutions producing 8-point dose curves and added at 50 μl per well in duplicate. Cells were then incubated for 48 hours at 37° C., 5% CO2. Cytotoxicity was measure by incubating with 100 μL Cell Titer Glo (Promega) solution for 1 hour, and then luminescence was measured on a Fusion HT plate reader (Perkin Elmer). Data was processed with Excel (Microsoft) and GraphPad (Prism) to produce dose response curves and IC50 values were generated and data collected.

Caki-1 cells = assay: Free drug 48 hour Cell Titer Glo cytotoxicity, Caki-1; details: Homo sapiens, Table 3, 48 hours, read-out: IC50 Summary for Free Drugs, Caki-1
Method: as §1

MCF-7 cells [2] = assay: Free drug 48 hour Cell Titer Glo cytotoxicity, MCF-7; details: Homo sapiens, MCF7, Table 3, 48 hours, read-out: IC50 Summary for Free Drugs, MCF-7
Method: as §1

HL-60 cells = assay: Free drug 48 hour Cell Titer Glo cytotoxicity, HL-60; details: Homo sapiens, Table 3, 48 hours, read-out: IC50 Summary for Free Drugs, HL-60
Method: as §1

THP-1 cells = assay: Free drug 48 hour Cell Titer Glo cytotoxicity, THP-1; details: Homo sapiens, Table 3, 48 hours, read-out: IC50 Summary for Free Drugs, THP-1
Method: as §1

HEL cells = assay: Free drug 48 hour Cell Titer Glo cytotoxicity, HEL; details: Homo sapiens, Table 3, 48 hours, read-out: IC50 Summary for Free Drugs, HEL
Method: as §1

TF1a cells = assay: Free drug 48 hour Cell Titer Glo cytotoxicity, TF1a; details: TF-1a, Table 3, 48 hours, read-out: IC50 Summary for Free Drugs, TF1a
Method: as §1

MCF-7 cells [3] = assay: Free drug cytotoxicity assay, MCF-7 (Table 2); details: Homo sapiens
Method: (§2) For a 96-hour assay, cells cultured in log-phase growth were seeded for 24 h in 96-well plates containing 150 μL RPMI 1640 supplemented with 20% FBS. Serial dilutions of test article (i.e., free drug) in cell culture media were prepared at 4× working concentration; 50 μL of each dilution was added to the 96-well plates. Following addition of test article, the cells were incubated with test articles for 4 days at 37° C. Resazurin was then added to each well to achieve a 50 μM final concentration, and the plates were incubated for an additional 4 h at 37° C. The plates were then read for the extent of dye reduction on a Fusion HT plate reader (Packard Instruments, Meridien, Conn., USA) with excitation and emission wavelengths of 530 and 590 nm, respectively. The IC50 value, determined in triplicate, is defined here as the concentration that results in a 50% reduction in cell growth relative to untreated controls.
Referring to the following Table 2, the activity of compounds 28, 30 and 32 is shown on L428, 786-O, HEL, HL-60 and MCF-7 cells, as well as the activity for compound 19 on MCF-7 cells.

[4] = test system: 786-O renal cell carcinoma cell line (CD70+); assay: ADC 96-hour resazurin cytotoxicity assay, 786-O
Method: (§3) The in vitro cytotoxic activity of the selected antibody drug conjugates was assessed using a resazurin (Sigma, St. Louis, Mo., USA) reduction assay (reference: Doronina et al., Nature Biotechnology, 2003, 21, 778-784). The antibody drug conjugates were prepared as described above in Example 13.
as §2, with “For the” for “For a”, “of ADC” for “of test article (i.e., free drug)”, “of ADC,” for “of test article,”

[5] = test system: L428 Hodgkin lymphoma cell line (CD70+/30+); assay: ADC 96-hour resazurin cytotoxicity assay, L428
Method: as §3
as §2, with “For the” for “For a”, “of ADC” for “of test article (i.e., free drug)”, “of ADC,” for “of test article,”

control (AML cell line) = assay: ADC 96-hour resazurin cytotoxicity assay, control line of Table 7
Method: as §3
as §2, with “For the” for “For a”, “of ADC” for “of test article (i.e., free drug)”, “of ADC,” for “of test article,”
Referring to Table 7, the in vitro cytotoxicity of ADCs containing PBD dimers on CD70^+ cell lines using the 96 hour assay is shown. […]

COc1ccc(C2=CN3C(=O)c4cc(OC)c(OCCCCCOc5cc6c(cc5OC)C(=O)N5C=C(c7ccc(N)cc7)C[C@H]5C=N6)cc4N=C[C@@H]3C2)cc1 [Compound 13, (S)-2-(4-aminophenyl)-7-methoxy-8-(5-((S)-7-methoxy-2-(4-methoxyphenyl)-5-oxo-5,11a-dihydro-1H-pyrrolo[2,1-c][1,4]benzodiazepine-8-yloxy)pentyloxy)-H-pyrrolo[2,1-c][1,4]benzodiazepine-5(11aH)-one]
IC50 [1]: 0.03 nM

COc1ccc(C2=CN3C(=O)c4cc(OC)c(OCCCCCOc5cc6c(cc5OC)C(=O)N5C=C(c7ccc(O)cc7)C[C@H]5C=N6)cc4N=C[C@@H]3C2)cc1 [Compound 23, (S)-2-(4-hydroxyphenyl)-7-methoxy-8-(5-((S)-7-methoxy-2-(4-methoxyphenyl)-5-oxo-5,11a-dihydro-1H-pyrrolo[2,1-c][1,4]benzodiazepin-8-yloxy)pentyloxy)-1H-pyrrolo[2,1-c][1,4]benzodiazepine-5(11aH)-one]
IC50 (786-O cells): 0.06 nM | IC50 (Caki-1 cells): 0.02 nM | IC50 (MCF-7 cells [2]): 0.7 nM | IC50 (HL-60 cells): 0.005 nM | IC50 (THP-1 cells): 0.4 nM | IC50 (HEL cells): 0.009 nM | IC50 (TF1a cells): 0.2 nM

COc1ccc(C2=CN3C(=O)c4cc(OC)c(OCCCCCOc5cc6c(cc5OC)C(=O)N5C=C(c7ccc(C=O)cc7)C[C@H]5C=N6)cc4N=C[C@@H]3C2)cc1 [Compound 25, 4-((S)-7-methoxy-8-(5-((S)-7-methoxy-2-(4-methoxyphenyl)-5-oxo-5,11a-dihydro-1H-pyrrolo[2,1-c][1,4]benzodiazepin-8-yloxy)pentyloxy)-5-oxo-5,11a-dihydro-1H-pyrrolo[2,1-c][1,4]benzodiazepine-2-yl)benzaldehyde]
IC50 (786-O cells): 0.09 nM | IC50 (Caki-1 cells): 0.06 nM | IC50 (MCF-7 cells [2]): 0.8 nM | IC50 (HL-60 cells): 0.01 nM | IC50 (THP-1 cells): 0.9 nM | IC50 (HEL cells): 0.02 nM | IC50 (TF1a cells): 0.9 nM

COc1cc2c(cc1OCCCCCOc1cc3c(cc1OC)C(=O)N1C=C(c4cccc(N)c4)C[C@H]1C=N3)N=C[C@@H]1CC(c3ccc(N4CCN(C)CC4)cc3)=CN1C2=O [Compound 30, (S)-2-(3-aminophenyl)-7-methoxy-8-(5-((S)-7-methoxy-2-(4-(4-methylpiperazin-1-yl)phenyl)-5-oxo-5,11a-dihydro-H-pyrrolo[2,1-c][1,4]benzodiazepin-8-yloxy)pentyloxy)-1H-pyrrolo[2,1-c][1,4]benzodiazepine-5(11aH)-one]
IC50 (MCF-7 cells [3]; MCF7, Table 2, read-out: IC50 Summary for Free Drugs, MCF-7): 0.01 nM

COc1ccc(C2=CN3C(=O)c4cc(OC)c(OCCCOc5cc6c(cc5OC)C(=O)N5C=C(c7ccc(CN)cc7)C[C@H]5C=N6)cc4N=C[C@@H]3C2)cc1 [Compound 32, (S)-2-(4-(aminomethyl)phenyl)-7-methoxy-8-(3-((S)-7-methoxy-2-(4-methoxyphenyl)-5-oxo-5,11a-dihydro-1H-pyrrolo[2,1-c][1,4]benzodiazepine-8-yloxy)propyloxy)-1H-pyrrolo[2,1-c][1,4]benzodiazepine-5(11aH)-one]
IC50 (MCF-7 cells [3]; MCF7, read-out: IC50 Summary for Free Drugs, MCF-7): 1 nM

B1: h1F6-44 (3.5 dr/mAb) (conjugate, chains of the INN, looked up)
VH: QVQLVQSGAEVKKPGASVKVSCKASGYTFTNYGMNWVRQAPGQGLKWMGWINTYTGEPTYADAFKGRVTMTRDTSISTAYMELSRLRSDDTAVYYCARDYGDYGMDYWGQGTTVTVSS
VL: DIVMTQSPDSLAVSLGERATINCRASKSVSTSGYSFMHWYQQKPGQPPKLLIYLASNLESGVPDRFSGSGSGTDFTLTISSLQAEDVAVYYCQHSREVPWTFGQGTKVEIK
modifications: drug-linker 44 conjugate, 3.5 drugs/mAb
In vitro cytotoxic activity (IC50), 786-O [4]: 1.124 µg/mL | In vitro cytotoxic activity (IC50), L428 [5]: 2.142 µg/mL

B2: h1F6 54 (4 dr/rnAb) (conjugate, chains of the INN, looked up)
VH: B1 VH
VL: B1 VL
modifications: drug-linker 54, 4 drugs/mAb
In vitro cytotoxic activity (IC50), 786O [4]: No effect | In vitro cytotoxic activity (IC50), L428 [5]: No effect | In vitro cytotoxic activity (IC50), control (control (AML cell line)): No effect

B3: h1F6- 43(4 dr/rnAb) (conjugate, chains of the INN, looked up)
VH: B1 VH
VL: B1 VL
modifications: drug-linker 43, 4 drugs/mAb
In vitro cytotoxic activity (IC50), 786O [4]: 0.011 µg/mL | In vitro cytotoxic activity (IC50), L428 [5]: 0.404 µg/mL | In vitro cytotoxic activity (IC50), control (control (AML cell line)): 1.205 µg/mL
